Measurements from patent US10328053B2 (Gilead Sciences, Inc., priority 2016, dated 2019).

Assay: Hepatic Stability Assay (in vitro half-life method)
Assay type: in vitro ADME
Parameters: dose or concentration left out as unconfirmed
Details: pooled cryopreserved hepatocytes, 37° C., 1×10^6 cells/mL, 0-6 hours, LC-MS/MS, 39.5 hours is the maximum detectable half life, read-out: t½ (converted)
Protocol: Hepatic Stability Assay The metabolic stability of certain compounds disclosed herein was assessed in vitro in pooled cryopreserved hepatocytes using the in vitro half-life method. Incubations were at 37° C. and final concentrations in the incubations were 1×10^6 cells/mL and […] test concentration of the compound. Aliquots were sequentially removed after 0, 1, 3 and 6 hours and analyzed by LC-MS/MS. In vitro half-life was determined by measuring the rate of disappearance of the compound and then scaled to predicted hepatic clearance using the well-stirred model. […] As such, compounds having a value of 39.5 may have a half live that exceeds 39.5 hours.

| Compound | half-life [h] |
| --- | --- |
| CNC(=O)C1(NC(=O)C(=O)c2c(C)c(C(=O)Nc3ccc(F)c(Cl)c3)n3c2CCC3C)CC(F)(F)C1 (racemic) [Example 18, N-(3-chloro-4-fluorophenyl)-7-(2-((3,3-difluoro-1-(methylcarbamoyl)cyclobutyl)amino)-2-oxoacetyl)-3,6-dimethyl-2,3-dihydro-1H-pyrrolizine-5-carboxamide] | 6 |
| Cc1c(C(=O)C(=O)N[C@H](C)C(F)(F)F)c2n(c1C(=O)Nc1ccc(F)c(Cl)c1)C(C)CC2 (mixture of isomers) [Example 20, N-(3-chloro-4-fluorophenyl)-3,6-dimethyl-7-(2-oxo-2-(((R)-1,1,1-trifluoropropan-2-yl)amino)acetyl)-2,3-dihydro-1H-pyrrolizine-5-carboxamide] | 14.3 |
| Cc1c(C(=O)C(=O)N[C@H](C)C(F)(F)F)c2n(c1C(=O)Nc1ccc(F)c(Cl)c1)C(C)CC2 (single isomer, unassigned) [Example 24] | 5 |
| Cc1c(C(=O)C(=O)N[C@H](C)C(F)(F)F)c2n(c1C(=O)Nc1ccc(F)c(Cl)c1)CCC2 [Example 2, (R)—N-(3-chloro-4-fluorophenyl)-6-methyl-7-(2-oxo-2-((1,1,1-trifluoropropan-2-yl)amino)acetyl)-2,3-dihydro-1H-pyrrolizine-5-carboxamide] | 15 |
| CNC(=O)C1(NC(=O)C(=O)c2c(C)c(C(=O)Nc3ccc(F)c(Cl)c3)n3c2CCC3)CC(F)(F)C1 [Example 3, N-(3-chloro-4-fluorophenyl)-7-(2-((3,3-difluoro-1-(methylcarbamoyl)cyclobutyl)amino)-2-oxoacetyl)-6-methyl-2,3-dihydro-1H-pyrrolizine-5-carboxamide] | 35.1 |
| CNC(=O)C1(NC(=O)C(=O)c2c(C)c(C(=O)Nc3ccc(F)c(Cl)c3)n3c2C[C@@H]2C[C@@H]23)CC(F)(F)C1 [Example 4, (1aS,6aS)—N-(3-chloro-4-fluorophenyl)-5-(2-((3,3-difluoro-1 (methylcarbamoyl)cyclobutyl)amino)-2-oxoacetyl)-4-methyl-1,1a,6,6a-tetrahydrocyclopropa[b]pyrrolizine-3-carboxamide] | 7.3 |
| CNC(=O)C1(NC(=O)C(=O)c2c(C)c(C(=O)Nc3ccc(F)c(Cl)c3)n3c2C[C@H]2C[C@H]23)CC(F)(F)C1 [Example 5, (1aR,6aR)—N-(3-chloro-4-fluorophenyl)-5-(2-((3,3-difluoro-1-(methylcarbamoyl)cyclobutyl)amino)-2-oxoacetyl)-4-methyl-1,1a,6,6a-tetrahydrocyclopropa[b]pyrrolizine-3-carboxamide] | 5.2 |
| Cc1c(C(=O)C(=O)NC2(CN3CC4(COC4)C3)CC(F)(F)C2)c2n(c1C(=O)Nc1ccc(F)c(Cl)c1)CCC2 [Example 10, 7-(2-((1-((2-oxa-6-azaspiro[3.3]heptan-6-yl)methyl)-3,3-difluorocyclobutyl)amino)-2-oxoacetyl)-N-(3-chloro-4-fluorophenyl)-6-methyl-2,3-dihydro-1H-pyrrolizine-5-carboxamide] | 1 |
| CNC(=O)C1(NC(=O)C(=O)c2c(C)c(C(=O)Nc3ccc(F)c(Cl)c3)n3c2CCC3(C)C)CC(F)(F)C1 [Example 15, N-(3-chloro-4-fluorophenyl)-7-(2-((3,3-difluoro-1-(methylcarbamoyl)cyclobutyl)amino)-2-oxoacetyl)-3,3,6-trimethyl-2,3-dihydro-1H-pyrrolizine-5-carboxamide] | 0.5 |
| Cc1c(C(=O)C(=O)N[C@H](C)C(F)(F)F)c2n(c1C(=O)Nc1ccc(F)c(Cl)c1)C(C)(C)CC2 [Example 17, (R)—N-(3-chloro-4-fluorophenyl)-3,3,6-trimethyl-7-(2-oxo-2-((1,1,1-trifluoropropan-2-yl)amino)acetyl)-2,3-dihydro-1H-pyrrolizine-5-carboxamide] | 0.6 |
| Cc1c(C(=O)C(=O)NC2(c3c[nH]nn3)CC2)c2n(c1C(=O)Nc1cc(F)c(F)c(F)c1)CCC2 [Example 26, 7-(2-((1-(1H-1,2,3-triazol-4-yl)cyclopropyl)amino)-2-oxoacetyl)-6-methyl-N-(3,4,5-trifluorophenyl)-2,3-dihydro-1H-pyrrolizine-5-carboxamide] | 8.2 |
| CNC(=O)C1(NC(=O)C(=O)c2c(C)c(C(=O)Nc3ccc(F)c(C#N)c3)n3c2C[C@H]2C[C@H]23)CC(F)(F)C1 [Example 30, (1aR,6aR)—N-(3-cyano-4-fluorophenyl)-5-(2-((3,3-difluoro-1-(methylcarbamoyl)cyclobutyl)amino)-2-oxoacetyl)-4-methyl-1,1a,6,6a-tetrahydrocyclopropa[b]pyrrolizine-3-carboxamide] | 27.2 |
| Cc1c(C(=O)C(=O)NC2(c3c[nH]nn3)CC2)c2n(c1C(=O)Nc1ccc(F)c(F)c1)CCC2 [Example 43, 7-(2-((1-(1H-1,2,3-triazol-4-yl)cyclopropyl)amino)-2-oxoacetyl)-N-(3,4-difluorophenyl)-6-methyl-2,3-dihydro-1H-pyrrolizine-5-carboxamide] | 16 |
| Cc1c(C(=O)C(=O)NC2(c3nnn(C)n3)CC2)c2n(c1C(=O)Nc1ccc(F)c(Cl)c1)CCC2 [Example 50, N-(3-chloro-4-fluorophenyl)-6-methyl-7-(2-((1-(2-methyl-2H-tetrazol-5-yl)cyclopropyl)amino)-2-oxoacetyl)-2,3-dihydro-1H-pyrrolizine-5-carboxamide] | 15.3 |
| Cc1nnc(C2(NC(=O)C(=O)c3c(C)c(C(=O)Nc4ccc(F)c(Cl)c4)n4c3CCC4)CC2)[nH]1 [Example 51, N-(3-chloro-4-fluorophenyl)-6-methyl-7-(2-((1-(5-methyl-4H-1,2,4-triazol-3-yl)cyclopropyl)amino)-2-oxoacetyl)-2,3-dihydro-1H-pyrrolizine-5-carboxamide] | 9.5 |

Second part, the compound after the results:

| half-life [h] | Compound |
| --- | --- |
| 15.5 | Cc1c(C(=O)C(=O)NC2(c3c[nH]nn3)CC(F)(F)C2)c2n(c1C(=O)Nc1ccnc(C(F)F)c1)CCC2 [Example 55, 7-(2-((3,3-difluoro-1-(1H-1,2,3-triazol-4-yl)cyclobutyl)amino)-2-oxoacetyl)-N-(2-(difluoromethyl)pyridin-4-yl)-6-methyl-2,3-dihydro-1H-pyrrolizine-5-carboxamide] |
| 38.5 | Cc1c(C(=O)C(=O)NC2(c3nncs3)CC2)c2n(c1C(=O)Nc1ccc(F)c(C#N)c1)[C@@H]1C[C@@H]1C2 [Example 58, (1aR,6aR)-5-(2-((1-(1,3,4-thiadiazol-2-yl)cyclopropyl)amino)-2-oxoacetyl)-N-(3-cyano-4-fluorophenyl)-4-methyl-1,1a,6,6a-tetrahydrocyclopropa[b]pyrrolizine-3-carboxamide] |
| 22.3 | Cc1c(C(=O)C(=O)NC2(c3c[nH]nn3)CC(F)(F)C2)c2n(c1C(=O)Nc1ccnc(C(F)F)c1F)CCC2 [Example 59, 7-(2-((3,3-difluoro-1-(1H-1,2,3-triazol-4-yl)cyclobutyl)amino)-2-oxoacetyl)-N-(2-(difluoromethyl)-3-fluoropyridin-4-yl)-6-methyl-2,3-dihydro-1H-pyrrolizine-5-carboxamide] |
| 5.4 | Cc1c(C(=O)C(=O)NC2(c3nncs3)CC2)c2n(c1C(=O)Nc1ccc(F)c(F)c1)[C@@H]1C[C@@H]1C2 [Example 61, (1aR,6aR)-5-(2-((1-(1,3,4-thiadiazol-2-yl)cyclopropyl)amino)-2-oxoacetyl)-N-(3,4-difluorophenyl)-4-methyl-1,1a,6,6a-tetrahydrocyclopropa[b]pyrrolizine-3-carboxamide] |
| 5.3 | Cc1c(C(=O)C(=O)NC2(c3nncs3)CC2)c2n(c1C(=O)Nc1ccnc(C(F)F)c1)[C@@H]1C[C@@H]1C2 [Example 62, (1aR,6aR)-5-(2-((1-(1,3,4-thiadiazol-2-yl)cyclopropyl)amino)-2-oxoacetyl)-N-(2-(difluoromethyl)pyridin-4-yl)-4-methyl-1,1a,6,6a-tetrahydrocyclopropa[b]pyrrolizine-3-carboxamide] |
| 11.2 | Cc1c(C(=O)C(=O)NC2(c3c[nH]nn3)CC2)c2n(c1C(=O)Nc1ccnc(C(F)F)c1F)[C@@H]1C[C@@H]1C2 [Example 63, (1aR,6aR)-5-(2-((1-(1H-1,2,3-triazol-4-yl)cyclopropyl)amino)-2-oxoacetyl)-N-(2-(difluoromethyl)-3-fluoropyridin-4-yl)-4-methyl-1,1a,6,6a-tetrahydrocyclopropa[b]pyrrolizine-3-carboxamide] |
| 13.2 | Cc1nnc(C2(NC(=O)C(=O)c3c(C)c(C(=O)Nc4ccc(F)c(Cl)c4)n4c3CCC4)CC2)o1 [Example 64, N-(3-chloro-4-fluorophenyl)-6-methyl-7-(2-((1-(5-methyl-1,3,4-oxadiazol-2-yl)cyclopropyl)amino)-2-oxoacetyl)-2,3-dihydro-1H-pyrrolizine-5-carboxamide] |
| 14.8 | Cc1nnc(C2(NC(=O)C(=O)c3c(C)c(C(=O)Nc4cc(F)c(F)c(F)c4)n4c3CCC4)CC2)o1 [Example 65, 6-methyl-7-(2-((1-(5-methyl-1,3,4-oxadiazol-2-yl)cyclopropyl)amino)-2-oxoacetyl)-N-(3,4,5-trifluorophenyl)-2,3-dihydro-1H-pyrrolizine-5-carboxamide] |
| 17 | Cc1c(C(=O)C(=O)NC2(c3c[nH]nn3)CC2)c2n(c1C(=O)Nc1cccc(F)c1)CCC2 [Example 69, 7-(2-((1-(1H-1,2,3-triazol-4-yl)cyclopropyl)amino)-2-oxoacetyl)-N-(3-fluorophenyl)-6-methyl-2,3-dihydro-1H-pyrrolizine-5-carboxamide] |
| 7.3 | Cc1c(C(=O)C(=O)NC2(C)CS(=O)(=O)C2)c2n(c1C(=O)Nc1ccc(F)c(Cl)c1)[C@@H]1C[C@@H]1C2 [Example 71, (1aR,6aR)—N-(3-chloro-4-fluorophenyl)-4-methyl-5-(2-((3-methyl-1,1-dioxidothietan-3-yl)amino)-2-oxoacetyl)-1,1a,6,6a-tetrahydrocyclopropa[b]pyrrolizine-3-carboxamide] |
